Literature values in publication PMC2363502.

Experiments:
[1] = test system: xenograft or orthotopic tumour; design: method as in earlier work; conditions: 5- 25 mg kg-1 day-1 intraperitoneally, ref Regenass et al, 1994, Dorhout et al, 1995, Gutman et al, Manni et al, Delworth et al, 1997, Svensson et al, Mi et al, 1998; cited from earlier work
L-1210 leukaemia = test system: L-1210 leukaemia; design: method as in Dorhout et al, 1995; conditions: treated L-1210 leukaemia-bearing animals; ref Dorhout et al, 1995; cited from earlier work
[2] = test system: variety of different tumour cell lines; design: method as in H Mett, unpublished data; conditions: including multi-drug-resistant and highly metastatic variants; ref H Mett, unpublished data; cited from earlier work

## N=C(N)c1cccc2c1CCC2=NN=C(N)N [SAM486A]
[1]
  effect on tumour growth: inhibited tumour growth
L-1210 leukaemia
  SAMDC activity and putrescine pools in tumours: decreased SAMDC activity and elevated putrescine pools
[2]
  growth inhibitory IC50: micromolar range
